Laboratory results reported in BigSolDB 2.1.

CC(C)(C)OC(=O)N[C@@H](CCC(N)=O)C(=O)O
solubility (mole fraction)
Details	283.15 K	288.15 K	293.15 K	298.15 K	303.15 K	308.15 K	313.15 K	318.15 K	323.15 K
in 2-butanone	0.0208	0.0219	0.0247	0.0294	0.035	0.0408	0.0517	0.068	0.0995
in acetone	0.0586	0.0675	0.0797	0.0959	0.105	0.127	0.146	0.168	0.187
in acetonitrile	0.00293	0.00389	0.00493	0.0064	0.008	0.0113	0.0165	0.0243	0.0356
in ethanol	0.13	0.139	0.148	0.155	0.165	0.177	0.191	0.202	–
in ethyl acetate	0.00199	0.00241	0.00301	0.00377	0.00475	0.00596	0.00774	0.0102	0.0145
in isobutanol	0.0317	0.0398	0.0479	0.055	0.0676	0.0766	0.0843	0.0943	0.108
in isopropanol	0.0536	0.0626	0.0789	0.0922	0.108	0.124	0.153	0.175	0.198
in methyl acetate	0.00534	0.00588	0.00699	0.00843	0.0115	0.0173	0.0254	0.0393	0.0649
in n-butanol	0.0427	0.0487	0.0554	0.0649	0.0748	0.0924	0.119	0.146	–
in n-pentanol	0.0343	0.0352	0.0382	0.0417	0.0481	0.0573	0.07	0.0946	–
in n-propanol	0.057	0.0698	0.0803	0.0938	0.116	0.135	0.162	0.207	–
in water	0.00718	0.00807	0.00935	0.0126	0.0205	0.0307	0.0554	0.0905	–
